Publication PMC6114082, “Synthesis of aminophenylhydroxamate and aminobenzylhydroxamate derivatives and in vitro screening for antiparasitic and histone deacetylase inhibitory activity” (International Journal for Parasitology: Drugs and Drug …, 2018)
Where two headings read alike, the source gives them in different places.

Assays:
[1] = tested on: L. braziliensis MHOM/BR/75/M209; test: Antileishmanial activity, L. braziliensis promastigotes (luciferase expressing strain); type: cell-based, Leishmania braziliensis
Protocol: (§1) The antitrypanosomatid activity of the compounds was ascertained as follows. Leishmania parasites were cultured at 26 °C in SDM-79 medium supplemented with 10% fetal calf serum (FCS), and the antileishmanial activity was determined according to a previously published protocol for LUC-expressing and wild-type Leishmania ([Sereno et al., 2001], [Abbassi et al., 2008]). Trypanosoma brucei gambiense were grown at 26 °C in Cunningham's medium supplemented with 10% FCS, 2 mM GlutaMAX-1 (Gibco, USA), 100 U/ml penicillin, 100 μg/ml streptomycin and […] bovine hemin. The epimastigote form of Trypanosoma cruzi (strain Y cl7 scl2, lineage Tc2) (kindly provided by Philippe Truc and Christian Barnabé, UMR 177 IRD-CIRAD InterTryp, Montpellier, France) were grown at 26 °C in liver infusion tryptose (LIT) medium, supplemented with 10% FCS, 2 mM GlutaMAX™-I, 100 U/ml penicillin, 100 μg/ml streptomycin and bovine hemin (20 mg/l) (Gibco). The antitrypanosomatids activity was determined using a protocol that was initialy set up for wild-type Leishmania ([Abbassi et al., 2008]). To assess the drug activity on Toxoplasma gondii, confluent human foreskin fibroblast (HFF) monolayers were infected with YFP-type I Rh kindly provided by B. Striepen, see ([Striepen et al., 1998]) or Tomato-type II Pru kindly provided by N. Blanchard (Toulouse), expressing parasites at 5 × 10^4 per well, which were then centrifuged for 30 s at 1300 rpm and incubated for 30 min in a water bath at 37 °C to allow invasion. The wells were then washed three times with PBS to eliminate extracellular parasites, and the drugs were added at various concentrations ranging from 1 to 50 μM. After incubation for 24 h at 37 °C in a humidified atmosphere containing 5% CO2, the cells were fixed in 2.5% methanol-free formaldehyde (Tebu-bio)/PBS for 30 min at room temperature. Nuclei were stained with Hoechst 33258 (2 μg/ml, Molecular Probes) for 20 min and then washed three times with water for 10 min each time. The number of infected cells, i.e., cells harboring a parasitophorous vacuole, and the number of parasites per vacuole were determined using an Olympus ScanR microscope ( × 20 objective) and ScanR software. The parasitic index in % compared to the control was calculated as follows: (PI=((number of parasite/100 cells in treated wells) x (% of infected macrophage in treated well)/(number of parasite/100 cells in untreated wells) x (% of infected macrophage in untreated wells))*100).

T. gondi RH-YFP [2] = test: Anti-Toxoplasma activity in infected HFF monolayers, type I RH-YFP (parasitic index); type: cell-based, Toxoplasma gondii; details: for IS^a selectivity index for T. gondi: IC50 HFF / IC50 T. gondi RH-YFP; for IC50: 24 h, type I strain, in HFF, read-out: T. gondi RH-YFP IC50
Leishmania = test: Antileishmanial activity, Leishmania species summarised in text; type: cell-based, Leishmania spp.; details: abstract sentence also covers antitrypanosomal activity, read-out: antileishmanial activity IC50, summarised over species
Protocol: The antitrypanosomatid activity of the compounds was ascertained as follows. Leishmania parasites were cultured at 26 °C in SDM-79 medium supplemented with 10% fetal calf serum (FCS), and the antileishmanial activity was determined according to a previously published protocol for LUC-expressing and wild-type Leishmania ([Sereno et al., 2001], [Abbassi et al., 2008]). Trypanosoma brucei gambiense were grown at 26 °C in Cunningham's medium supplemented with 10% FCS, 2 mM GlutaMAX-1 (Gibco, USA), 100 U/ml penicillin, 100 μg/ml streptomycin and 20 mg/ml bovine hemin. […] The antitrypanosomatids activity was determined using a protocol that was initialy set up for wild-type Leishmania ([Abbassi et al., 2008]). […] The number of infected cells, i.e., cells harboring a parasitophorous vacuole, and the number of parasites per vacuole were determined using an Olympus ScanR microscope ( × 20 objective) and ScanR software. The parasitic index in % compared to the control was calculated as follows: (PI=((number of parasite/100 cells in treated wells) x (% of infected macrophage in treated well)/(number of parasite/100 cells in untreated wells) x (% of infected macrophage in untreated wells))*100).

[3] = Cytotoxicity, MTT assay, HFF; type: cell-based, human; details: human, HFF cells
Protocol: (§2) The human monocytic cell line THP-1 was cultivated in RPMI medium supplemented with 10% FCS, 2 mM GlutaMAX, 100 U/ml penicillin, and 100 μg/ml streptomycin. HFF cells were cultivated in Dulbecco's modified Eagle's medium (DMEM) with Earle's salts containing 10% FCS, 10 mM HEPES, 1 mM sodium pyruvate, 2 mM GlutaMAX, 100 U/ml penicillin, and 100 μg/ml streptomycin. The THP-1 and HFF cells were maintained in a 5% CO2 incubator at 37 °C. Cytotoxicity was evaluated via the MTT assay, and the IC50 values were calculated using Prism software (Prism 4 for Mac OS X, version 5.0b, December, 2008).

[4] = tested on: HeLa nuclear extract (HDAC 1, 2, 6, and 8 predominant); test: Fluorometric HDAC assay, HeLa nuclear extract; type: biochemical; details: HeLa nuclear extract; read-out: HDACi HeLa IC50
Protocol: The HDACi effect against HeLa nuclear extracts and recombinant proteins were measured using a fluorometric HDAC assay kit (Active Motif, Belgium) according to the manufacturer's instructions. […] A negative control containing trichostatin A at a final concentration of 2 μM was analyzed for each independent experiment.

[5] = tested on: L. tropica MHOM/BR/73/5-ASKM; test: Antileishmanial activity, L. tropica promastigotes; type: cell-based, Leishmania tropica
Protocol: as §1

[6] = tested on: T. brucei MHOM/CI/81/DAL967; test: Antitrypanosomal activity, T. brucei; type: cell-based, Trypanosoma brucei gambiense
Protocol: as §1

[7] = tested on: L. infantum MHOM/MA/67/ITMAP-264; test: Antileishmanial activity, L. infantum promastigotes (luciferase expressing strain); type: cell-based, Leishmania infantum; details: for IS^b selectivity index for L. infantum: IC50 THP-1 / IC50 Leishmania infantum (footnote); for IC50: promastigotes, luciferase expressing strain
Protocol: as §1

[8] = Cytotoxicity, MTT assay, THP-1; type: cell-based, human; details: human, THP-1 cells (monocytic cell line); MTT assay
Protocol: as §2

THP-1 cells = test: Cytotoxicity, MTT assay, THP-1; type: cell-based, human; details: MTT assay
Protocol: as §2

HFF cells = test: Cytotoxicity, MTT assay, HFF; type: cell-based, human
Protocol: as §2

T. gondi RH-YFP [9] = tested on: T. gondi RH-YFP; parameters: method as in Butler et al., 2013; details: ref Butler et al., 2013; read-out: anti-Toxoplasma IC50, literature; cited from earlier work

Compound: O=C(NO)c1ccc(CNC(=O)c2cccc(F)c2)cc1 [Compound 345, 4-{[(3-fluorophenyl)formamido]methyl}-N-hydroxybenzamide]
- IC50 ([1]; Leishmania braziliensis): 23.5 ± 1.5 µM
- IS^a selectivity index for T. gondi (T. gondi RH-YFP [2]): 11.6
- IC50 (Leishmania): 15 to 50 µM
- IC50 [3]: 58.3 ± 1.2 µM
- IC50 [4]: 0.866 ± 0.4 µM
- IC50 ([5]; Leishmania tropica): 35.3 ± 12.2 µM
- IC50 ([6]; Trypanosoma brucei): > 60 µM
- IS^b selectivity index for L. infantum [7]: 0.3
- IC50 ([7]; Leishmania infantum): 27.2 ± 2.5 µM

Compound: O=C(NO)c1ccc(NC(=O)c2cccc(F)c2)cc1 [Compound 349, 4-(3-fluorobenzamido)-N-hydroxybenzamide]
- IC50 [8]: 264 ± 8 µM
- IC50 ([1]; Leishmania braziliensis): > 60 µM
- IC50 (T. gondi RH-YFP [2]; Toxoplasma gondii): > 50 µM
- IC50 [3]: > 400 µM
- IC50 [4]: 0.633 ± 0.041 µM
- IC50 ([5]; Leishmania tropica): > 60 µM
- IC50 ([6]; Trypanosoma brucei): > 60 µM
- IC50 ([7]; Leishmania infantum): > 60 µM

Compound: O=C(NO)c1ccc(CNS(=O)(=O)c2cccc(F)c2)cc1 [Compound 350, 4-(3-fluorobenzenesulfonamidomethyl)-N-hydroxybenzamide]
- IC50 [8]: > 400 µM
- IC50 ([1]; Leishmania braziliensis): > 60 µM
- IS^a selectivity index for T. gondi (T. gondi RH-YFP [2]): 7.5
- IC50 (T. gondi RH-YFP [2]; Toxoplasma gondii): < 50 µM
- IC50 [3]: 300 ± 50 µM
- IC50 ([5]; Leishmania tropica): > 60 µM
- IC50 ([6]; Trypanosoma brucei): > 60 µM
- IC50 ([7]; Leishmania infantum): > 60 µM

Compound: O=C(NO)c1ccc(NS(=O)(=O)c2cccc(F)c2)cc1 [Compound 351, 4-(3-fluorobenzenesulfonamido)-N-hydroxybenzamide]
- IC50 [8]: 33.5 ± 15 µM
- IC50 ([1]; Leishmania braziliensis): > 60 µM
- IC50 (T. gondi RH-YFP [2]; Toxoplasma gondii): > 50 µM
- IC50 [3]: 116 ± 3 µM
- IC50 [4]: 0.881 ± 0.083 µM
- IC50 ([5]; Leishmania tropica): > 60 µM
- IC50 ([6]; Trypanosoma brucei): > 60 µM
- IS^b selectivity index for L. infantum [7]: <1
- IC50 ([7]; Leishmania infantum): > 60 µM

Compound: Cc1nc(-c2ccc(C(=O)NCc3ccc(C(=O)NO)cc3)cc2)cs1 [Compound 360]
- IC50 (THP-1 cells): 2.2 ± 0.5 µM
- IC50 [1]: > 60 µM
- IC50 (HFF cells): 22.6 ± 9.5 µM
- IC50 [4]: 0.399 ± 0.137 µM
- IC50 [5]: 55 ± 15 µM
- IC50 [6]: > 60 µM
- IC50 [7]: > 60 µM

Compound: Cc1nc(-c2ccc(C(=O)Nc3ccc(C(=O)NO)cc3)cc2)cs1 [Compound 361]
- IC50 (THP-1 cells): > 400 µM
- IC50 [1]: > 60 µM
- IC50 (T. gondi RH-YFP [2]): > 50 µM
- IC50 (HFF cells): 25 ± 4 µM
- IC50 [4]: > 1.8 µM
- IC50 [5]: > 60 µM
- IC50 [6]: > 60 µM
- IC50 [7]: > 60 µM

Compound: COc1cccc(CC(=O)NCc2ccc(C(=O)NO)cc2)c1 [Compound 362, N-hydroxy-4-{[2-(3-methoxyphenyl)acetamido]methyl}benzamide]
- IC50 [8]: 30.5 ± 3 µM
- IC50 ([1]; Leishmania braziliensis): > 60 µM
- IS^a selectivity index for T. gondi (T. gondi RH-YFP [2]): >7.6
- IC50 (T. gondi RH-YFP [2]; Toxoplasma gondii): > 50 µM
- IC50 [3]: > 400 µM
- IC50 [4]: 0.518 ± 0.146 µM
- IC50 ([5]; Leishmania tropica): > 60 µM
- IC50 ([6]; Trypanosoma brucei): > 60 µM
- IS^b selectivity index for L. infantum [7]: <1
- IC50 ([7]; Leishmania infantum): > 60 µM

Compound: CCc1nc(N)nc(N)c1-c1ccc(Cl)cc1 [pyrimethamine]
- IC50 (T. gondi RH-YFP [9]): 0.4 µM
